# Structures can show the parent of a compound that is named as a salt.
# Target: T1, human Mnk2a (Homo sapiens, UniProt Q9HBH9)
# T1 construct: made in house; host or cells: E. coli BL21 (vector pGEX-4T1)
# Assay: Mnk2a in vitro kinase assay (indirect fluorescence polarization)
# Assay type: biochemical
# Conditions: GST-Mnk2a pre-activated with ERK2, 20 μM ATP, 30 μM substrate peptide; read-out: MNK2 IC50
# Summary of the method: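 Indirect competitive fluorescence polarization: kinase-generated phospho-product displaces a fluorophore-labelled phospho-peptide from a phospho-specific antibody. Enzyme is N-terminal GST-Mnk2a from E. coli, activated with pre-activated ERK2 and 50 μM ATP; substrate is an amidated 12-mer peptide around eIF4E Ser209.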
# T1 sequence (Q9HBH9 whole entry): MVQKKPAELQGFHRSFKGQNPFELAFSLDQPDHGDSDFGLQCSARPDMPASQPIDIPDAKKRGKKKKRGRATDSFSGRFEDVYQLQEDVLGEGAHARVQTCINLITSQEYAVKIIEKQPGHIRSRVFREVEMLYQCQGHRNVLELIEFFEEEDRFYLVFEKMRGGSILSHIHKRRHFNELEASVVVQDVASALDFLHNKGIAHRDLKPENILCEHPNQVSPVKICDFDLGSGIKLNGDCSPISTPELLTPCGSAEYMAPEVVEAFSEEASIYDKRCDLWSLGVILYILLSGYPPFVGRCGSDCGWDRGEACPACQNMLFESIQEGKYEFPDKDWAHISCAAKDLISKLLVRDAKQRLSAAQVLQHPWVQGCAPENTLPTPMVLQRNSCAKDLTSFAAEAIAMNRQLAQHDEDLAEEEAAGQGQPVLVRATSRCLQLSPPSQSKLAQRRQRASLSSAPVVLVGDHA
row,Structure (SMILES),IC50 [nM]
1,Cc1c(C(=O)N[C@H]2CCC[C@@H]2O)sc2ncnc(Nc3ccc(F)cc3OC3CCOCC3)c12 [Example 254],42
2,CNCCNC(=O)c1sc2ncnc(Nc3ccc(F)cc3OC3CCOCC3)c2c1C [Example 146],70
3,Cc1c(C(=O)NCCc2cccnc2)sc2ncnc(Nc3ccc(F)cc3OC3CCOCC3)c12 [Example 207],41
4,Cc1c(C(=O)NCC(F)(F)F)sc2ncnc(Nc3ccc(F)cc3OC3CCOCC3)c12 [Example 159],44
5,Cc1c(C(=O)NCC(=O)N(C)C)sc2ncnc(Nc3ccc(F)cc3OC3CCOCC3)c12 [Example 157],65
6,Cc1c(C(N)=O)sc2ncnc(Nc3ccc(F)cc3O[C@H]3CCCN(C)C3)c12 [Example 8],80
7,Cc1c(C(=O)NCC2CCOCC2)sc2ncnc(Nc3ccc(F)cc3OC3CCOCC3)c12 [Example 172],43
8,CCC(CC)CNC(=O)c1sc2ncnc(Nc3ccc(F)cc3OC3CCCNC3)c2c1C (stereo not drawn) [Example 26],60
9,Cc1c(C(=O)N[C@H]2CC[C@@](C)(O)CC2)sc2ncnc(Nc3ccc(F)cc3OC3CCOCC3)c12 [Example 170],125
10,Cc1c(C(=O)NCCCO)sc2ncnc(Nc3ccc(F)cc3OC3CCOCC3)c12 [Example 152],40
11,CCC(C)CNC(=O)c1sc2ncnc(Nc3ccc(F)cc3OC3CCCNC3)c2c1C (stereo not drawn) [Example 20],67
12,Cc1c(C(=O)NCC(C)(C)CO)sc2ncnc(Nc3ccc(F)cc3OC3CCOCC3)c12 [Example 216],54
13,Cc1c(C(=O)NCCOCCO)sc2ncnc(Nc3ccc(F)cc3OC3CCOCC3)c12 [Example 210],60
14,"CC(=O)N1CC[C@H](Oc2cc(F)ccc2Nc2ncnc3sc(C(N)=O)c(C)c23)C1 [Example 96, 4-[2-((S)-1-Acetyl-pyrrolidin-3-yloxy)-4-fluoro-phenylamino]-5-methyl-thieno[2,3-d]pyrimidine-6-carboxylic acid amide]",1100
15,Cc1c(C(=O)NCc2ccc(Cl)c(F)c2)sc2ncnc(Nc3ccc(F)cc3OC3CCCNC3)c12 (stereo not drawn) [Example 59],48
16,Cc1c(C(=O)NCC2CCCN(C)C2)sc2ncnc(Nc3ccc(F)cc3OC3CCOCC3)c12 (stereo not drawn) [Example 123],38
17,Cc1c(C(=O)NCCS(=O)(=O)N(C)C)sc2ncnc(Nc3ccc(F)cc3OC3CCCNC3)c12 (stereo not drawn) [Example 47],51
18,Cc1c(C(=O)NCc2nccs2)sc2ncnc(Nc3ccc(F)cc3OC3CCCNC3)c12 (stereo not drawn) [Example 31],43

row,Structure (SMILES),IC50 [nM]
1,Cc1c(C(=O)NCC2(O)CCCC2)sc2ncnc(Nc3ccc(F)cc3OC3CCOCC3)c12 [Example 203],51
2,"Cc1c(C(=O)NC2CCCNCC2)sc2ncnc(Nc3ccc(F)cc3OC3CCOC3)c12 (stereo in doubt) [Compound 277, 4-{4-Fluoro-2-[(R)-(tetrahydro-furan-3-yl)oxy]-phenylamino}-5-methyl-thieno[2,3-d]pyrimidine-6-carboxylic acid azepan-4-ylamide trifluoroacetate]",59
3,Cc1c(C(=O)NCCC(N)=O)sc2ncnc(Nc3ccc(F)cc3OC3CCOCC3)c12 [Example 165],39
4,Cc1c(C(=O)N[C@H]2CCCC[C@@H]2O)sc2ncnc(Nc3ccc(F)cc3OC3CCOCC3)c12 [Example 243],49
5,Cc1c(C(=O)NCC(c2cccnc2)N(C)C)sc2ncnc(Nc3ccc(F)cc3OC3CCCNC3)c12 (stereo not drawn) [Example 62],110
6,COCCNC(=O)c1sc2ncnc(Nc3ccc(F)cc3O[C@H]3CCCNC3)c2c1C [Example 13],59
7,Cc1c(C(=O)NCc2ccccc2)sc2ncnc(Nc3ccc(F)cc3OC3CCCNC3)c12 (stereo not drawn) [Example 27],48
8,Cc1c(C(=O)NCCc2ccccn2)sc2ncnc(Nc3ccc(F)cc3OC3CCOCC3)c12 [Example 206],43
9,CCOCCNC(=O)c1sc2ncnc(Nc3ccc(F)cc3OC3CCOCC3)c2c1C [Example 160],59
10,Cc1c(C(=O)NCCn2cc[nH]c2=O)sc2ncnc(Nc3ccc(F)cc3OC3CCOCC3)c12 [Example 179],166
11,Cc1c(C(=O)NCC2(C)CCN(C)C2)sc2ncnc(Nc3ccc(F)cc3OC3CCOCC3)c12 (stereo not drawn) [Example 204],66
12,Cc1c(C(=O)NCCCc2c[nH]cn2)sc2ncnc(Nc3ccc(F)cc3OC3CCOCC3)c12 [Example 169],38
13,Cc1c(C(=O)NCc2ccc(OC(C)C)cc2)sc2ncnc(Nc3ccc(F)cc3OC3CCCNC3)c12 (stereo not drawn) [Example 63],43
14,Cc1c(C(=O)NCCn2ccnc2)sc2ncnc(Nc3ccc(F)cc3OC3CCOCC3)c12 [Example 151],57
15,Cc1c(C(=O)NCCCc2ccncc2)sc2ncnc(Nc3ccc(F)cc3OC3CCCNC3)c12 (stereo not drawn) [Example 56],49
16,Cc1c(C(=O)NCCCN(C)C)sc2ncnc(Nc3cccnc3O[C@@H]3CCOC3)c12 [Example 268],100
17,Cc1c(C(=O)NC2(CO)CC2)sc2ncnc(Nc3ccc(F)cc3OC3CCOCC3)c12 [Example 194],63

# Now from value to molecule:
row,IC50 [nM],Structure (SMILES)
1,34,"Cc1c(C(N)=O)sc2ncnc(Nc3cccnc3O[C@H]3CCOC3)c12 [Example 269, 5-Methyl-4-{2-[(S)-(tetrahydro-furan-3-yl)oxy]-pyridin-3-ylamino}-thieno[2,3-d]pyrimidine-6-carboxylic acid amide]"
2,31,Cc1c(C(=O)NCCCN2CCOCC2)sc2ncnc(Nc3ccc(F)cc3OC3CCOCC3)c12 [Example 212]
3,8,"Cc1c(C(N)=O)sc2ncnc(Nc3ccc(F)cc3OC3CCN(S(C)(=O)=O)C3)c12 (stereo not drawn) [Example 89, 4-[4-Fluoro-2-(1-methanesulfonyl-pyrrolidin-3-yloxy)-phenylamino]-5-methyl-thieno[2,3-d]pyrimidine-6-carboxylic acid amide]"
4,26,Cc1c(C(=O)NCc2ccco2)sc2ncnc(Nc3ccc(F)cc3OC3CCCNC3)c12 (stereo not drawn) [Example 22]
5,26,Cc1c(C(=O)NC2CC2)sc2ncnc(Nc3ccc(F)cc3O[C@@H]3CCOC3)c12 [Example 107]
6,38,Cc1c(C(=O)NCc2ccncc2)sc2ncnc(Nc3ccc(F)cc3OC3CCOCC3)c12 [Example 221]
7,19,Cc1c(C(=O)NCC#CCN(C)C)sc2ncnc(Nc3ccc(F)cc3O[C@@H]3CCOC3)c12 [Example 274]
8,37,Cc1c(C(=O)NCC(=O)O)sc2ncnc(Nc3ccc(F)cc3OC3CCOCC3)c12 [Example 149]
9,6,Cc1c(C(=O)NCCO)sc2ncnc(Nc3ccc(F)cc3O[C@@H]3CCCN(S(C)(=O)=O)C3)c12 [Example 86]
10,36,CC(=O)NCCCNC(=O)c1sc2ncnc(Nc3ccc(F)cc3OC3CCOCC3)c2c1C [Example 130]
11,11,"Cc1c(C(=O)NS(C)(=O)=O)sc2ncnc(Nc3ccc(F)cc3O[C@@H]3CCOC3)c12 [Example 101, N-(4-{4-Fluoro-2-[(R)-(tetrahydro-furan-3-yl)oxy]-phenylamino}-5-methyl-thieno[2,3-d]pyrimidine-6-carbonyl)-methanesulfonamide]"
12,22,"Cc1c(C(=O)NCC2CN(C)CCO2)sc2ncnc(Nc3ccc(F)cc3OC3CCOCC3)c12 (stereo not drawn) [Example 116, 4-[4-Fluoro-2-(tetrahydro-pyran-4-yloxy)-phenylamino]-5-methyl-thieno[2,3-d]pyrimidine-6-carboxylic acid (4-methyl-morpholin-2-ylmethyl)-amide trifluoracetate]"
13,30,Cc1c(C(=O)NCCCO)sc2ncnc(Nc3ccc(F)cc3O[C@H]3CCCNC3)c12 [Example 16]
14,20,Cc1c(C(=O)NCC2CN(C)CCO2)sc2ncnc(Nc3ccc(F)cc3O[C@@H]3CCOC3)c12 (stereo partly drawn) [Example 105]
15,33,Cc1c(C(=O)NCc2ccccn2)sc2ncnc(Nc3ccc(F)cc3OC3CCOCC3)c12 [Example 219]
16,19,Cc1c(C(=O)NO)sc2ncnc(Nc3ccc(F)cc3OC3CCOCC3)c12 [Example 244]
17,33,Cc1c(C(=O)NCCC[S+](C)[O-])sc2ncnc(Nc3ccc(F)cc3OC3CCOCC3)c12 (stereo not drawn) [Example 236]
18,19,Cc1c(C(=O)NO)sc2ncnc(Nc3ccc(F)cc3OC3CCN(S(C)(=O)=O)C3)c12 (stereo not drawn) [Example 93]
19,25,Cc1c(C(=O)NCCCN2CCCC2)sc2ncnc(Nc3ccc(F)cc3O[C@@H]3CCOC3)c12 [Example 106]
20,35,Cc1c(C(=O)NCc2ccc(O)cc2)sc2ncnc(Nc3ccc(F)cc3OC3CCCNC3)c12 (stereo not drawn) [Example 34]
21,12,"Cc1c(C(=O)NCCCN(C)C)sc2ncnc(Nc3ccc(F)cc3O[C@H]3CCCOC3)c12 [Example 87, 4-{4-Fluoro-2-[(S)-(tetrahydro-pyran-3-yl)oxy]-phenylamino}-5-methyl-thieno[2,3-d]pyrimidine-6-carboxylic acid (3-dimethylamino-propyl)-amide]"
22,5,Cc1c(C(N)=O)sc2ncnc(Nc3ccc(F)cc3O[C@@H]3CCCN(CC(F)(F)F)C3)c12 [Example 73]
23,17,Cc1c(C(=O)NCC2CNCCO2)sc2ncnc(Nc3ccc(F)cc3OC3CCOCC3)c12 (stereo not drawn) [Example 127]
24,36,Cc1c(C(=O)N[C@H]2CCN(C(=O)OC(C)(C)C)C[C@@H]2O)sc2ncnc(Nc3ccc(F)cc3OC3CCOCC3)c12 [Example 241]
25,36,"Cc1c(C(N)=O)sc2ncnc(Nc3cccnc3O[C@@H]3CCOC3)c12 [Example 267, 5-Methyl-4-{2-[(R)-(tetrahydro-furan-3-yl)oxy]-pyridin-3-ylamino}-thieno[2,3-d]pyrimidine-6-carboxylic acid amide]"
26,35,Cc1c(C(=O)NCCC#N)sc2ncnc(Nc3ccc(F)cc3OC3CCOCC3)c12 [Example 228]
27,18,Cc1c(C(=O)NCc2ncc[nH]2)sc2ncnc(Nc3ccc(F)cc3OC3CCOCC3)c12 [Example 231]
28,35,Cc1c(C(=O)NCCCN2CCCC2=O)sc2ncnc(Nc3ccc(F)cc3OC3CCOCC3)c12 [Example 131]

# From US8648068B2, “Heterocycloalkyl-containing thienopyrimidines for pharmaceutical compositions” (Boehringer Ingelheim International GmbH, priority 2010, dated 2014)
